Counter-ions that a name gives are not always drawn. Like-named read-outs stand apart in the source and are kept apart here.
Key:
[1] = system: AB5075; test: Broth microdilution MIC of compound alone (standalone toxicity); format: cell-based, Acinetobacter baumannii
Method: (§1) Bacterial Strains and Antimicrobial Agents. Acinetobacter baumannii clinical isolate 5075 was obtained from Dr. Colin Manoil at the University of Washington. Colonies were grown on lysogeny broth (LB) agar. Cation-adjusted Mueller-Hinton Broth (CAMHB) (catalog number 212322) were purchased from BD Diagnostics. LB broth was purchased from Fisher Scientific (catalog number BP9722-2). […] Colistin sulfate salt (catalog number C4461) was purchased from Sigma Aldrich. All assays were completed in duplicate and repeated at least two separate times. All compounds were dissolved as their HCl salts in molecular biology grade DMSO as 10 or 100 mM stock solutions and stored at −20° C. Colistin was dissolved in sterile water while clarithromycin was dissolved in molecular biology grade DMSO.
Broth microdilution method for MIC determination. Day cultures (6 h) of each bacterial strain in cation adjusted Mueller Hinton II broth (CAMHB, Fisher Scientific U.S.) were subcultured to 5×10^5 CFU/mL in CAMHB. Aliquots (1 mL) were placed in culture tubes and compound was added from 10 mM stock samples in DMSO, such that compound concentration equaled highest concentration tested (200 μM). Samples were then aliquoted (200 μL) into the first wells of a 96-well plate, with all remaining wells being filled with 100 μL of initial bacterial subculture. Row one wells were mixed five times, before 100 μL was transferred to row two. Row two was then mixed five times, and 100 μL was transferred to row three. This process was repeated until the final row had been mixed; this served to serially dilute the compound. Plates were then covered with GLAD Press n'Seal and incubated under stationary conditions at 37° C. for 16 h. MIC values were then recorded as the lowest concentration at which no bacterial growth was observed.

[2] = system: AB5075; test: Broth microdilution clarithromycin (CLR) potentiation and dose-response of adjuvant; format: cell-based, Acinetobacter baumannii
Method: as §1
Broth microdilution method for antibiotic potentiation. Day cultures (6 h) of bacteria in CAMHB were subcultured to 5×10^5 CFU/mL in CAMHB. Aliquots (4 mL) were placed in culture tubes and dosed with compound from 10 mM stock samples to give the desired concentration of the compound to be tested against the particular bacterial strain; this insured non-toxic DMSO concentrations ≤0.3% in each well. 1 mL of the resulting solution was placed in a separate culture and dosed with antibiotic at the highest concentration to be tested. Bacteria treated with antibiotic alone served as the control. Row one of a 96-well plate was filled with 200 μL of the antibiotic/2-AI solution, and rows 2-12 were filled with 100 μL each of the remaining 4 mL of bacterial subculture containing adjuvant at the desired concentration, except for the control lane which contained only bacterial subculture. Row one was then mixed five times, and 100 μL was transferred to row two, which was then mixed five times before being transferred to row three. This process was repeated until all rows had been mixed, except for row twelve which would have only 2-AI to serve as a control to monitor potential toxicity. The 96-well plate was then covered in Glad Press n'Seal and incubated under stationary conditions at 37° C. for 16 h. MIC values were determined as the lowest concentration at which no bacterial growth was observed, and fold reductions were determined by comparison to antibiotic control lane.
Dose-response of Adjuvant Assay. The procedure for ‘broth microdilution method for antibiotic potentiation’ was followed using 4 mL aliquots of adjuvant at various concentrations: 0, 5, 7.5, 10, 15, 20, 25, and 30 μM.

Compound: Nc1nc(-c2ccc(NC(=O)c3ccccc3)cc2)c[nH]1 [Compound 4a, N-(4-(2-amino-1H-imidazol-4-yl)phenyl)benzamide hydrochloride]
- MIC ([1]; Acinetobacter baumannii): > 200 µM

Compound: Cl.Nc1nc(-c2ccc(NC(=O)c3cccc(I)c3)cc2)c[nH]1 [Compound 4b]
- MIC [1]: >200 µM
- CLR MIC ([2]; compound tested at 30 μM): 32 µg/mL

Compound: Cl.Nc1nc(-c2ccc(NC(=O)c3cccc(Br)c3)cc2)c[nH]1 [Compound 4c]
- MIC [1]: >200 µM
- CLR MIC ([2]; compound tested at 30 μM): 32 µg/mL

Compound: Cl.Nc1nc(-c2ccc(NC(=O)c3cccc(Cl)c3)cc2)c[nH]1 [Compound 4d, 4-(2-Amino-3H-imidazol-4-yl)phenyl]-3-chlorobenzamide hydrochloride]
- MIC ([1]; Acinetobacter baumannii): 200 µM

Compound: Cl.Nc1nc(-c2ccc(NC(=O)c3cccc(Cl)c3)cc2)c[nH]1 [Compound 4d]
- CLR MIC ([2]; compound tested at 10 μM): 16 µg/mL
- CLR MIC ([2]; compound tested at 20 μM): 4 µg/mL

Compound: Cl.Nc1nc(-c2ccc(NC(=O)c3cccc(F)c3)cc2)c[nH]1 [Compound 4e]
- MIC [1]: >200 µM
- CLR MIC ([2]; compound tested at 30 μM): 16 µg/mL

Compound: Cl.Nc1nc(-c2ccc(NC(=O)c3ccc(C(F)(F)F)cc3)cc2)c[nH]1 [Compound 4f]
- MIC [1]: >200 µM
- CLR MIC ([2]; compound tested at 30 μM): 32 µg/mL

Compound: Cl.Nc1nc(-c2ccc(NC(=O)c3ccc(I)cc3)cc2)c[nH]1 [Compound 4g]
- MIC [1]: >200 µM
- CLR MIC ([2]; compound tested at 30 μM): 16 µg/mL

Compound: Nc1nc(-c2ccc(NC(=O)c3ccc(Br)cc3)cc2)c[nH]1 [Compound 4h, N-(4-(2-amino-1H-imidazol-4-yl)phenyl)-4-bromobenzamide hydrochloride]
- MIC ([1]; Acinetobacter baumannii): > 200 µM

Compound: Cl.Nc1nc(-c2ccc(NC(=O)c3ccc(Cl)cc3)cc2)c[nH]1 [Compound 4i, 4-(2-Amino-3H-imidazol-4-yl)phenyl]-4-chlorobenzamide hydrochloride]
- MIC ([1]; Acinetobacter baumannii): > 200 µM

Compound: Cl.Nc1nc(-c2ccc(NC(=O)c3ccc(Cl)cc3)cc2)c[nH]1 [Compound 4i]
- CLR MIC ([2]; compound tested at 10 μM): 16 µg/mL
- CLR MIC ([2]; compound tested at 20 μM): 4 µg/mL

Compound: Cl.Nc1nc(-c2ccc(NC(=O)c3ccc(F)cc3)cc2)c[nH]1 [Compound 4j, N-(4-(2-amino-1H-imidazol-4-yl)phenyl)-4-fluorobenzamide hydrochloride]
- MIC ([1]; Acinetobacter baumannii): > 200 µM
- CLR MIC ([2]; compound tested at 30 μM): 8 µg/mL

Compound: Cl.Nc1nc(-c2ccc(NC(=O)c3cc(C(F)(F)F)cc(C(F)(F)F)c3)cc2)c[nH]1 [Compound 4l, 4-(2-Amino-3H-imidazol-4-yl)phenyl]-3,5-(bistrifluoromethyl)benzamide hydrochloride]
- MIC ([1]; Acinetobacter baumannii): 50 µM

Compound: Cl.Nc1nc(-c2ccc(NC(=O)c3cc(C(F)(F)F)cc(C(F)(F)F)c3)cc2)c[nH]1 [Compound 4l]
- CLR MIC ([2]; compound tested at 15 μM): 8 µg/mL

Compound: Cc1cc(C)cc(C(=O)Nc2ccc(-c3c[nH]c(N)n3)cc2)c1.Cl [Compound 4m, N-(4-(2-amino-1H-imidazol-4-yl)phenyl)-3,5-dimethylbenzamide hydrochloride]
- MIC ([1]; Acinetobacter baumannii): > 200 µM
- CLR MIC ([2]; compound tested at 30 μM): 2 µg/mL
